What was measured:
Settings in all cases: main component drawn
[1] = system: B. subtilis 168; assay: fitness (endpoint OD595 vs no drug) (fraction); higher = more growth
Procedure, shortened: (§1)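 Bacterial growth was followed in 384-well plates seeded at OD595 0.01, with 30 µl per well, or 55 µl for S. pneumoniae, in TSB, LB Lennox or CY at 37 °C. OD595 was read every 30 min for 14 h, and each reading had the first reading subtracted as background. Fitness is the background-corrected optical density at entry into stationary phase divided by the robust mean of the no-drug control wells. This ratio is capped at 1.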

[2] = system: S. aureus Newman; assay: as above
Procedure, shortened: as §1

[3] = system: B. subtilis 168; assay: Bliss interaction score (quartile over a dose matrix) (fitness difference); higher = more antagonism (negative = synergy)
Procedure, shortened: (§2)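 The Bliss score is observed minus expected fitness under the product model, reported as quartiles over technical, biological and donor/recipient replicates. Fitness is the OD595 at entry into stationary phase divided by the plate's robust no-drug mean and capped at 1. Single-drug fitness was inferred from combination data.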

[4] = system: S. aureus DSM 20231; assay: as above
Procedure, shortened: as §2

[5] = system: S. aureus Newman; assay: as above
Procedure, shortened: as §2

[6] = system: S. pneumoniae D39V; assay: as above
Procedure, shortened: as §2
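Throughout, for Bliss interaction score (quartile over a dose matrix): first quartile when negative (synergy) and third quartile when positive (antagonism).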

CC[C@H](C)[C@H](N)C1=N[C@H](C(=O)N[C@@H](CC(C)C)C(=O)N[C@H](CCC(=O)O)C(=O)N[C@H](C(=O)N[C@H]2CCCCNC(=O)[C@H](CC(N)=O)NC(=O)[C@@H](CC(=O)O)NC(=O)[C@H](Cc3cnc[nH]3)NC(=O)[C@@H](Cc3ccccc3)NC(=O)[C@H]([C@@H](C)CC)NC(=O)[C@@H](CCCN)NC2=O)[C@@H](C)CC)CS1 [Bacitracin] + CN[C@@H]1[C@H](O)[C@H](NC)[C@H]2O[C@@]3(O)C(=O)C[C@@H](C)O[C@H]3O[C@@H]2[C@H]1O [Spectinomycin]
fitness
Settings	partner 2 µg/mL	partner 4 µg/mL	partner 8 µg/mL	partner 16 µg/mL
[1], first compound 37.5 µg/mL	0.903	0.933	0.863	–
[1], first compound 75 µg/mL	0.889	0.911	0.829	–
[2], first compound 18.75 µg/mL	–	0.652	–	–
[2], first compound 75 µg/mL	–	0.0188	0.0181	0

fitness, [2], one replicate
Settings	first compound 18.75 µg/mL	first compound 37.5 µg/mL	first compound 75 µg/mL
partner 32 µg/mL	0.0067	0.0186	0
partner 64 µg/mL	0.0327	0.0167	0.003

Settings	Bliss interaction score
[3]	0.0682
[4]	0.0546
[5]	-0.165
[6]	-0.186

CC[C@H](C)[C@H](N)C1=N[C@H](C(=O)N[C@@H](CC(C)C)C(=O)N[C@H](CCC(=O)O)C(=O)N[C@H](C(=O)N[C@H]2CCCCNC(=O)[C@H](CC(N)=O)NC(=O)[C@@H](CC(=O)O)NC(=O)[C@H](Cc3cnc[nH]3)NC(=O)[C@@H](Cc3ccccc3)NC(=O)[C@H]([C@@H](C)CC)NC(=O)[C@@H](CCCN)NC2=O)[C@@H](C)CC)CS1 [Bacitracin] + CN[C@@H]1[C@H](O[C@H]2[C@H](O[C@H]3[C@H](O)[C@@H](O)[C@H](N=C(N)N)[C@@H](O)[C@@H]3N=C(N)N)O[C@@H](C)[C@]2(O)C=O)O[C@@H](CO)[C@H](O)[C@H]1O [Streptomycin]
fitness
Settings	first compound 18.75 µg/mL	first compound 37.5 µg/mL	first compound 75 µg/mL	first compound 150 µg/mL
[1], partner 2 µg/mL	–	0.908	0.807	–
[1], partner 8 µg/mL	–	0.0363	0.0188	0.0134
[2], partner 1 µg/mL	–	0.0508	0.0138	–
[2], partner 2 µg/mL	–	0.0177	0.0112	–
[2], partner 4 µg/mL	0.0347	0.0049	0.0045	–

Settings	Bliss interaction score
[3]	-0.234
[4]	-0.0869
[5]	-0.323
[6]	-0.146

CC[C@H](C)[C@H](N)C1=N[C@H](C(=O)N[C@@H](CC(C)C)C(=O)N[C@H](CCC(=O)O)C(=O)N[C@H](C(=O)N[C@H]2CCCCNC(=O)[C@H](CC(N)=O)NC(=O)[C@@H](CC(=O)O)NC(=O)[C@H](Cc3cnc[nH]3)NC(=O)[C@@H](Cc3ccccc3)NC(=O)[C@H]([C@@H](C)CC)NC(=O)[C@@H](CCCN)NC2=O)[C@@H](C)CC)CS1 [Bacitracin] + CO/N=C(\C(=O)N[C@@H]1C(=O)N2C(C(=O)O)=C(COC(C)=O)CS[C@H]12)c1csc(N)n1 [Cefotaxime]
fitness, [1], one replicate
Settings	partner 0.00775 µg/mL	partner 0.0155 µg/mL	partner 0.031 µg/mL	partner 0.0625 µg/mL	partner 0.125 µg/mL	partner 0.25 µg/mL
first compound 37.5 µg/mL	0.831	0.724	0.52	0.479	0.314	0.297
first compound 75 µg/mL	0.749	0.521	0.342	0.257	0.12	0.111
first compound 150 µg/mL	0.326	0.035	0	0.0561	0.0401	0.0433

fitness
Settings	partner 0.078 µg/mL	partner 0.156 µg/mL	partner 0.312 µg/mL	partner 0.5 µg/mL	partner 0.625 µg/mL	partner 1 µg/mL	partner 1.25 µg/mL	partner 2 µg/mL	partner 2.5 µg/mL
[1], first compound 37.5 µg/mL	–	–	–	0.274	–	0.137	–	0.134	–
[1], first compound 75 µg/mL	–	–	–	0.202	–	0.0939	–	0.0639	–
[1], first compound 150 µg/mL	–	–	–	0.0854	–	0.0162	–	0.0303	–
[2], first compound 18.75 µg/mL	0.465	0.0868	0.0343	–	0.0178	–	0.0266	–	0.0285
[2], first compound 37.5 µg/mL	0.0257	0.0132	0.0259	–	0.0287	–	0.0203	–	0.0237
[2], first compound 75 µg/mL	0.0416	0.031	0.0324	–	0.0342	–	0.0412	–	0.0372

Settings	Bliss interaction score
[3]	-0.1
[4]	-0.0827
[5]	-0.1
[6]	-0.0668

CC[C@H](C)[C@H](N)C1=N[C@H](C(=O)N[C@@H](CC(C)C)C(=O)N[C@H](CCC(=O)O)C(=O)N[C@H](C(=O)N[C@H]2CCCCNC(=O)[C@H](CC(N)=O)NC(=O)[C@@H](CC(=O)O)NC(=O)[C@H](Cc3cnc[nH]3)NC(=O)[C@@H](Cc3ccccc3)NC(=O)[C@H]([C@@H](C)CC)NC(=O)[C@@H](CCCN)NC2=O)[C@@H](C)CC)CS1 [Bacitracin] + CO/N=C(\C(=O)N[C@@H]1C(=O)N2C(C(=O)O)=C(COC(N)=O)CS[C@H]12)c1ccco1 [Cefuroxime]
fitness, [1]
Settings	first compound 37.5 µg/mL	first compound 75 µg/mL	first compound 150 µg/mL
partner 0.04875 µg/mL	0.691	0.612	–
partner 0.0975 µg/mL	0.629	0.529	0.275
partner 0.195 µg/mL	0.338	0.334	0.0599

fitness, one replicate
Settings	partner 0.04875 µg/mL	partner 0.0975 µg/mL	partner 0.195 µg/mL	partner 0.39 µg/mL	partner 0.78 µg/mL	partner 1.562 µg/mL	partner 3.125 µg/mL	partner 6.25 µg/mL
[1], first compound 37.5 µg/mL	–	–	–	0.293	0.266	0.419	0.351	0.269
[1], first compound 75 µg/mL	–	–	–	0.089	0.0839	0.352	0.323	0.257
[1], first compound 150 µg/mL	–	–	–	0.0217	0.0185	0.306	0.238	0.155
[2], first compound 18.75 µg/mL	0.634	0.599	0.287	–	–	–	–	–
[2], first compound 37.5 µg/mL	0.0709	0.0498	0.025	–	–	–	–	–
[2], first compound 75 µg/mL	0.0097	0.0027	0.0172	–	–	–	–	–

Settings	Bliss interaction score
[3]	-0.0903
[4]	-0.188
[5]	-0.0659
[6]	0.0554

CC[C@H](C)[C@H](N)C1=N[C@H](C(=O)N[C@@H](CC(C)C)C(=O)N[C@H](CCC(=O)O)C(=O)N[C@H](C(=O)N[C@H]2CCCCNC(=O)[C@H](CC(N)=O)NC(=O)[C@@H](CC(=O)O)NC(=O)[C@H](Cc3cnc[nH]3)NC(=O)[C@@H](Cc3ccccc3)NC(=O)[C@H]([C@@H](C)CC)NC(=O)[C@@H](CCCN)NC2=O)[C@@H](C)CC)CS1 [Bacitracin] + COc1c(N2C[C@@H]3CCCN[C@@H]3C2)c(F)cc2c(=O)c(C(=O)O)cn(C3CC3)c12 [Moxifloxacin]
fitness
Settings	partner 0.0075 µg/mL	partner 0.015 µg/mL	partner 0.03 µg/mL	partner 0.0312 µg/mL	partner 0.0625 µg/mL	partner 0.125 µg/mL	partner 2 µg/mL	partner 4 µg/mL	partner 8 µg/mL
[1], first compound 37.5 µg/mL	–	–	–	0.0427	0.0342	0.0345	0.0202	0.0156	0.0081
[1], first compound 75 µg/mL	–	–	–	0.022	0.026	0.0158	0.0179	0.0161	0.009
[1], first compound 150 µg/mL	–	–	–	0.019	0.0046	0.0203	0.0204	0.0121	0.0111
[2], first compound 18.75 µg/mL	0.614	0.482	0.0523	–	–	–	–	–	–
[2], first compound 37.5 µg/mL	0.133	0.0255	0.0043	–	–	–	–	–	–
[2], first compound 75 µg/mL	0.0091	0.0053	0.0025	–	–	–	–	–	–

Settings	Bliss interaction score
[3]	-0.0316
[4]	0.0317
[5]	-0.078
[6]	0.0806

CC[C@H](C)[C@H](N)C1=N[C@H](C(=O)N[C@@H](CC(C)C)C(=O)N[C@H](CCC(=O)O)C(=O)N[C@H](C(=O)N[C@H]2CCCCNC(=O)[C@H](CC(N)=O)NC(=O)[C@@H](CC(=O)O)NC(=O)[C@H](Cc3cnc[nH]3)NC(=O)[C@@H](Cc3ccccc3)NC(=O)[C@H]([C@@H](C)CC)NC(=O)[C@@H](CCCN)NC2=O)[C@@H](C)CC)CS1 [Bacitracin] + COc1ccc(C[C@H](N)C(=O)N[C@H]2[C@@H](O)[C@H](n3cnc4c(N(C)C)ncnc43)O[C@@H]2CO)cc1 [Puromycin]
fitness
Settings	first compound 18.75 µg/mL	first compound 37.5 µg/mL	first compound 75 µg/mL	first compound 150 µg/mL
[1], partner 0.39 µg/mL	–	0.901	0.875	0.793
[1], partner 0.78 µg/mL	–	0.959	0.958	–
[1], partner 1.56 µg/mL	–	0.903	0.881	–
[2], partner 0.39 µg/mL	0.693	–	0.0319	–
[2], partner 0.78 µg/mL	0.687	0.197	0.0272	–
[2], partner 1.56 µg/mL	0.685	0.0934	0.0307	–

Settings	Bliss interaction score
[3]	0.0815
[4]	-0.0671
[5]	-0.0486
[6]	0.048

Source: the supplement of paper PMC10627819
